Results: ChEMBL document CHEMBL4196225, “Precedence and Promise of Covalent Inhibitors of EGFR and KRAS for Patients with Non-Small-Cell Lung Cancer” (ACS Med Chem Lett, 2018)

How the values were obtained:
[1] = target: GTPase KRas (Homo sapiens, UniProt P01116, G12C); assay: Binding affinity to hexahistidine-tagged recombinant human KRas G12C mutant expressed in Escherichia coli BL21 (DE3) in presence of GDP
[2] = tested on: GTPase KRas (Homo sapiens), P01116 [G12C]; assay: Binding affinity to hexahistidine-tagged recombinant human KRas G12C mutant expressed in Escherichia coli BL21 (DE3) assessed as first-order rate constant in presence of GDP
[3] = tested on: GTPase KRas (Homo sapiens), P01116 [G12C]; assay: Ratio of Kinact to Ki for hexahistidine-tagged recombinant human KRas G12C mutant expressed in Escherichia coli BL21 (DE3)

GTPase KRas (Homo sapiens), P01116 [G12C], sequence (P01116 whole entry G12C): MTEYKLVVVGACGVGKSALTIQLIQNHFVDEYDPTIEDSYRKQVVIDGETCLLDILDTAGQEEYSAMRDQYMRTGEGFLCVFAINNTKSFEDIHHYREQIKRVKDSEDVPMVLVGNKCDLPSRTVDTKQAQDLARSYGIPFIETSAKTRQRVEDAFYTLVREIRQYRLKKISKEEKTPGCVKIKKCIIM
GTPase KRas, sequence (P01116 whole entry G12C): as above

- Ki [1]: > 64 µM
- Kinact [2]: > 0.066 s⁻¹
- Ratio [3]: 1100 M⁻¹ s⁻¹
Structure (SMILES): C=CC(=O)N1CCN(c2ncnc3c(F)c(-c4c(O)cccc4F)c(Cl)cc23)CC1 (atropisomer S)
